Data reported in ChEMBL document CHEMBL1134166, “The identification of alpha-ketoamides as potent inhibitors of hepatitis C virus NS3-4A proteinase” (Bioorg Med Chem Lett, 2001).
*1 amine or outer side, *2 acyl side, *3 side chain or, on linkers, in order; H or OH if unused. Where a SMILES comes first, the peptide text is derived from it. [ ]: non-standard residue; d: D form. The star is where a group is joined. X1 = O=C(C(=O)[*:2])[C@H](CC(F)(F)F)N[*:1]; NH(1S-phenylpropyl) = CC[C@H](N*)c1ccccc1; NH(1R-phenylethyl) = C[C@@H](N*)c1ccccc1; NH(1S-phenylethyl) = C[C@H](N*)c1ccccc1; Phe(2-Me) = Cc1ccccc1C[C@H](N)C(=O)O; NleCONH2 = CCCC[C@H](N*)C(=O)C(N)=O; NH(4-OH-benzyl) = Oc1ccc(CN*)cc1; X3 = CCCC[C@@H](N*)C(=O)C(N)=O; X5 = CC[C@H](N*)c1ccc2ccccc2c1; X6 = C[C@H](N*)c1ccc2ccccc2c1; Suc = O=C(CCC(=O)[*:2])[*:1]; Tle = CC(C)(C)[C@H](N)C(=O)O; X4 = CC(C)[C@H](N*)c1ccccc1; NHBn = c1ccc(CN*)cc1; X2 = COc1cccc(CN*)c1

How the values were obtained:
[1] = target: Hepatitis C virus serine protease, NS3/NS4A (Hepatitis C virus, UniProt A3EZI9+D2K2A8); test: (§1) Inhibition of hepatitis c virus Non structural protein 3 protease/Non structural protein 4A protease; assay type: protein-complex assay, Hepacivirus hominis
Trypsin = Trypsin (Homo sapiens, UniProt P07477+P07478+P35030); test: Compound was tested for inhibition of trypsin; assay type: protein assay
Neutrophil elastase = target: T1, Neutrophil elastase (Homo sapiens, UniProt P08246); test: Compound was tested for inhibition of Elastase
T1 sequence (P08246 whole entry): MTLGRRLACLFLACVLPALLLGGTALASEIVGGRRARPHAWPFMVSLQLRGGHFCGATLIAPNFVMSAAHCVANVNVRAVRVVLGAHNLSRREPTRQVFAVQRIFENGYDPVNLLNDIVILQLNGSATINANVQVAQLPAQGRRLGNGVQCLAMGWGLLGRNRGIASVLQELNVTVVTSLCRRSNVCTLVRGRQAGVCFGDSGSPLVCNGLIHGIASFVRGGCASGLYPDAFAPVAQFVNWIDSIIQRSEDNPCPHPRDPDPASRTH

[2] = target: Hepatitis C virus serine protease, NS3/NS4A (Hepatitis C virus, UniProt D2K2A8+A3EZI9); test: as §1; assay type: protein-complex assay, Hepacivirus hominis
Sequence of Hepatitis C virus serine protease, NS3/NS4A (Hepatitis C virus, UniProt D2K2A8+A3EZI9) (D2K2A8 whole entry): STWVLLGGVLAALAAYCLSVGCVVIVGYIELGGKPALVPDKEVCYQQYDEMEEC
Sequence of Hepatitis C virus serine protease, NS3/NS4A (Hepatitis C virus, UniProt D2K2A8+A3EZI9) (A3EZI9 whole entry): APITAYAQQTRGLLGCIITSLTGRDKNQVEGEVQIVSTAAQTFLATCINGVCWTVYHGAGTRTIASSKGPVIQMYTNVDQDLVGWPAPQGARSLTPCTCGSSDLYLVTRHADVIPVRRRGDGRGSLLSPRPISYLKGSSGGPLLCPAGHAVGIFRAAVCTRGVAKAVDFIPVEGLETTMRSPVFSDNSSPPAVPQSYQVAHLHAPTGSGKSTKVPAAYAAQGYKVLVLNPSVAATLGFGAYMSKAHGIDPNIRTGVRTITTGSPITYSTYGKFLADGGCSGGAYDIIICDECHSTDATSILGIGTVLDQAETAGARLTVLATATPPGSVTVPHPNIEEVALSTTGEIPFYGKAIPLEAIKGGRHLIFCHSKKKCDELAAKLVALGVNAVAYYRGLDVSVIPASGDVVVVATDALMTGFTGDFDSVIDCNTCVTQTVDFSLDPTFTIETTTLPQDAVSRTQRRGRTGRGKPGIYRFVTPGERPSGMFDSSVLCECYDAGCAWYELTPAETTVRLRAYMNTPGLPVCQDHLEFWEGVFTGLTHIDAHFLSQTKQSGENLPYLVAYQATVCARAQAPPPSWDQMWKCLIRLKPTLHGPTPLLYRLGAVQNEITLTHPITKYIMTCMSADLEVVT

Sequence of Hepatitis C virus serine protease, NS3/NS4A (Hepatitis C virus, UniProt A3EZI9+D2K2A8) (D2K2A8 whole entry): as the sequence (D2K2A8 whole entry) above
Sequence of Hepatitis C virus serine protease, NS3/NS4A (Hepatitis C virus, UniProt A3EZI9+D2K2A8) (A3EZI9 whole entry): as the sequence (A3EZI9 whole entry) above

Structure (SMILES) | IC50 [2] [nM] | other results
CCCC[C@H](NC(=O)[C@H](CC(C)C)NC(=O)[C@@H](NC(=O)[C@H](Cc1ccccc1C)NC(=O)[C@H](CCC(=O)O)NC(=O)[C@H](CC(=O)O)NC(=O)CCC(=O)O)C(C)(C)C)C(=O)C(N)=O (Suc-DE[Phe(2-Me)][Tle]L-NleCONH2) |  | IC50 [1]: 11 nM; IC50 (Trypsin): > 200000 nM
CCCC[C@@H](NC(=O)[C@H](CC(C)C)NC(=O)[C@@H](NC(=O)[C@H](Cc1ccccc1C)NC(=O)[C@H](CCC(=O)O)NC(=O)[C@H](CC(=O)O)NC(=O)CCC(=O)O)C(C)(C)C)C(=O)C(N)=O (Suc-DE[Phe(2-Me)][Tle]L-X3) |  | IC50 (Neutrophil elastase): 12000 nM
Cc1ccccc1C[C@H](NC(=O)[C@H](CCC(=O)O)NC(=O)[C@H](CC(=O)O)NC(=O)CCC(=O)O)C(=O)N[C@H](C(=O)N[C@@H](CC(C)C)C(=O)N[C@@H](CC(F)(F)F)C(=O)C(=O)NCc1ccccc1)C(C)(C)C (Suc-DE[Phe(2-Me)][Tle]L[X1]-NHBn) | 4 | 
COc1cccc(CNC(=O)C(=O)[C@H](CC(F)(F)F)NC(=O)[C@H](CC(C)C)NC(=O)[C@@H](NC(=O)[C@H](Cc2ccccc2C)NC(=O)[C@H](CCC(=O)O)NC(=O)[C@H](CC(=O)O)NC(=O)CCC(=O)O)C(C)(C)C)c1 (Suc-DE[Phe(2-Me)][Tle]L[X1]-X2) | 6 | 
Cc1ccccc1C[C@H](NC(=O)[C@H](CCC(=O)O)NC(=O)[C@H](CC(=O)O)NC(=O)CCC(=O)O)C(=O)N[C@H](C(=O)N[C@@H](CC(C)C)C(=O)N[C@@H](CC(F)(F)F)C(=O)C(=O)N[C@H](c1ccccc1)C(C)C)C(C)(C)C (Suc-DE[Phe(2-Me)][Tle]L[X1]-X4) | 7 | 
CC[C@H](NC(=O)C(=O)[C@H](CC(F)(F)F)NC(=O)[C@H](CC(C)C)NC(=O)[C@@H](NC(=O)[C@H](Cc1ccccc1C)NC(=O)[C@H](CCC(=O)O)NC(=O)[C@H](CC(=O)O)NC(=O)CCC(=O)O)C(C)(C)C)c1ccc2ccccc2c1 (Suc-DE[Phe(2-Me)][Tle]L[X1]-X5) | 8 | 
Cc1ccccc1C[C@H](NC(=O)[C@H](CCC(=O)O)NC(=O)[C@H](CC(=O)O)NC(=O)CCC(=O)O)C(=O)N[C@H](C(=O)N[C@@H](CC(C)C)C(=O)N[C@@H](CC(F)(F)F)C(=O)C(=O)N[C@@H](C)c1ccc2ccccc2c1)C(C)(C)C (Suc-DE[Phe(2-Me)][Tle]L[X1]-X6) | 4 | 
Cc1ccccc1C[C@H](NC(=O)[C@H](CCC(=O)O)NC(=O)[C@H](CC(=O)O)NC(=O)CCC(=O)O)C(=O)N[C@H](C(=O)N[C@@H](CC(C)C)C(=O)N[C@@H](CC(F)(F)F)C(=O)C(=O)N[C@H](C)c1ccccc1)C(C)(C)C (Suc-DE[Phe(2-Me)][Tle]L[X1]-{NH(1R-phenylethyl)}) | 1100 | 
Cc1ccccc1C[C@H](NC(=O)[C@H](CCC(=O)O)NC(=O)[C@H](CC(=O)O)NC(=O)CCC(=O)O)C(=O)N[C@H](C(=O)N[C@@H](CC(C)C)C(=O)N[C@@H](CC(F)(F)F)C(=O)C(=O)N[C@@H](C)c1ccccc1)C(C)(C)C (Suc-DE[Phe(2-Me)][Tle]L[X1]-{NH(1S-phenylethyl)}) | 4 | 
CC[C@H](NC(=O)C(=O)[C@H](CC(F)(F)F)NC(=O)[C@H](CC(C)C)NC(=O)[C@@H](NC(=O)[C@H](Cc1ccccc1C)NC(=O)[C@H](CCC(=O)O)NC(=O)[C@H](CC(=O)O)NC(=O)CCC(=O)O)C(C)(C)C)c1ccccc1 (Suc-DE[Phe(2-Me)][Tle]L[X1]-{NH(1S-phenylpropyl)}) | 7 | 
Cc1ccccc1C[C@H](NC(=O)[C@H](CCC(=O)O)NC(=O)[C@H](CC(=O)O)NC(=O)CCC(=O)O)C(=O)N[C@H](C(=O)N[C@@H](CC(C)C)C(=O)N[C@@H](CC(F)(F)F)C(=O)C(=O)NCc1ccc(O)cc1)C(C)(C)C (Suc-DE[Phe(2-Me)][Tle]L[X1]-{NH(4-OH-benzyl)}) | 4 | 
